Columns and labels:
HBEGF = assay: DNA microarray assay, expression of proliferative/growth-factor related genes; type: cell-based; details: DMSO delivered retinol at 5 ppm; retinyl linoleate and lysophospholipid concentrate at a ratio of 1:0.4
CSF2 = assay: as above; type: cell-based; details: DMSO delivered retinol at 5 ppm; retinyl linoleate and lysophospholipid concentrate at a ratio of 1:0.4
FGF = assay: as above; type: cell-based; details: DMSO delivered retinol at 5 ppm; retinyl linoleate and lysophospholipid concentrate at a ratio of 1:0.4
TGF alpha = assay: as above; type: cell-based; details: DMSO delivered retinol at 5 ppm; retinyl linoleate and lysophospholipid concentrate at a ratio of 1:0.4
mature murine skin = assay: Histology of punch biopsies of treated murine skin (epidermal thickening, proliferation, keratinocyte differentiation); type: in vivo, mice; details: for basal cell turn over / formation of normally-functioning supra basal granular keratinocytes: applied to the skin of mice, all trans retinoic acid 0.1%, all trans retinol 1.0%
Text: Photomicrographs of murine tissue samples treated according to methods of the present invention are presented the figures. Differing amounts of inter-laminar keratinocyte differentiation were observed. In some cases, there is intra-laminar disruption, in which stratum corneum (SC) and granular layer (GL) are separated, indicating little granular keratinocyte formation and/or suppression of one or both of granular keratinocyte extracellular desmosomal proteins and/or reduced production of laminar granules (proteases, lipids). This was not considered an artifact of the micro-tome blade.
More particularly, histological observations, including degree of “keratinocyte differentiation” are described by reference to photomicrographs of retired breeder mice obtained from Charles River Laboratories, Inc. (Wilmington, Mass.). An area of approximately one square inch was shaved. Test compositions (e.g., control=carrier vehicle with ingredient known to be irritating; test=same carrier and known irritant from control+phospholipid) were administered in accordance with methods of the inventions. Punch biopsies of full thickness skin and subcutaneous fat were taken as follows: skin was swabbed with an antiseptic and injected with a local anaesthetic; an incision was made, and a tissue specimen was removed and preserved in 10% neutral buffered formalin at a volume of approximately ten times that of the tissue). Excision sites were sutured. The preserved tissues samples were sent to Louisiana State University, School of Veterinary Medicine for processing and analysis. More particularly, tissue was processed in graded alcohol [70% (v/v) ethanol, 90% (v/v) ethanol, absolute ethanol] followed by graded xylene [[…], absolute xylene]. Next the processed tissue was placed in blocks/molds filled with paraffin wax liquid, in an orientation with the epidermis on top, with ice on top to hold the tissue in place. Wax blocks were cooled in ice and sectioned at a thickness of 5-15 μm using a microtome with disposable blade (Leica Microtome Model RM2255). Microtomed sections were placed on adhesive slides, incubated at 37° C. for 24 hours (i.e., on slide racks), and then stored in slide containers at room temperature until H&E staining is performed to visualize histological microstructures. All histological samples were micro photographed at 400× under normal light with standard digital equipment. These photos were transferred to PHOTOSHOP® computer imaging software from Adobe Systems Pvt. Ltd., in which measurements of epidermal thickness, SC thickness, granulation, layering were determined.

TGF beta 1 = assay: DNA microarray assay, expression of proliferative/growth-factor related genes; type: cell-based; details: DMSO delivered retinol at 5 ppm; retinyl linoleate and lysophospholipid concentrate at a ratio of 1:0.4
[1] = bioemulsion applied once daily over 4 consecutive days (retinyl phosphate 1%)
[2] = FIG. 7, bioemulsion with 1% retinyl linoleate
[3] = 1% in a bioemulsion applied once daily over 2 consecutive days
[4] = 1% in a bioemulsion applied once daily over three consecutive days

In the case of `CC1=C(/C=C/C(C)=C/C=C/C(C)=C/CO)C(C)(C)CCC1` [DMSO Delivered Retinol, Retinol], the “HBEGF level of expression (change)” value (HBEGF) is reported as −50%, the “CSF2 level of expression (change)” value (CSF2) is reported as −25% and the “FGF level of expression (change)” value (FGF) is reported as −50%. For the same molecule, the “TGF alpha level of expression (change)” value (TGF alpha) was “+200%”, the “basal cell turn over” value (mature murine skin) was “stimulates” and the “formation of normally-functioning supra basal granular keratinocytes” value (mature murine skin) was “inhibits or suppresses”. For the same molecule, the “TGF beta 1 level of expression (change)” value (TGF beta 1) was −50%.
`CC1=C(/C=C/C(C)=C/C=C/C(C)=C/C(=O)O)C(C)(C)CCC1` [all trans retinoic acid, Retinoic acid] was tested, and the “basal cell turn over” value (mature murine skin) was “stimulates” and the “formation of normally-functioning supra basal granular keratinocytes” value (mature murine skin) was “inhibits or suppresses”.
With `CC(C=CC1=C(C)CCCC1(C)C)=CC=CC(C)=CCOC(=O)CCC(=O)OCC=C(C)C=CC=C(C)C=CC1=C(C)CCCC1(C)C` [diretinyl succinate] the keratinocyte differentiation (mature murine skin; [1]) was “de minimis” and the proliferation (mature murine skin; [1]) was “De minimis”.
In the case of `CCCCC/C=C\C/C=C\CCCCCCCC(=O)OC/C=C(C)/C=C/C=C(C)/C=C/C1=C(C)CCCC1(C)C` [retinyl linoleate, Retinyl linoleate], the SC density (mature murine skin; [2]) is reported as “Increased”, the differentiation (mature murine skin; [2]) is reported as “without significant differentiation” and the proliferation (mature murine skin; [2]) is reported as “Increased”.
For `CC1=C(/C=C/C(C)=C\C=C\C(C)=C\COP(=O)(O)O)C(C)(C)CCC1` [retinyl phosphate], the keratinocyte differentiation (mature murine skin; [1]) was “de minimis” and the proliferation (mature murine skin; [1]) was “De minimis”.
Glyceryl diretinoate was tested, and the differentiation (mature murine skin; [3]) was “good” and the proliferation (mature murine skin; [3]) was “good”.
“Monoglyceryl retinoate [glyceryl mono retinoate]” was tested, and the differentiation (mature murine skin; [3]) was “excellent” and the proliferation (mature murine skin; [3]) was “excellent”.
acetyl-n-phenylalanine retinoate was tested, and the differentiation (mature murine skin; [4]) was “good” and the proliferation (mature murine skin; [4]) was “good”.

From patent US11173103B1, “Retinoids and epidermal stimulants” (Owen Biosciences, Inc., priority 2017, dated 2021)
